Measured values from patent publication US12673975B2, “Cyclic peptide, cell scaffold material, cell separating material, and medium” (FUJIFILM Corporation, priority 2019, dated 2026).
Starred links: 1 amine or outer side, 2 acyl side, 3 side chain; linkers in the order of their positions; H or OH if unused. Positions of bridges follow the written chain, without caps; N, C: chain ends. Non-standard residues stand in square brackets, D forms with d. Residues, ends and D or L forms follow the SMILES beside them. hCys = N[C@@H](CCS)C(=O)O; Dab = NCC[C@H](N)C(=O)O; X2 = O=C(C[*:1])[*:2]

Columns and labels:
[1] = Evaluation of molecule stability (alkali treatment, residual rate by LC/MS); assay type: physicochemical; conditions: alkali treatment, residual rate by LC/MS
In short: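 Stability read as percent of summed LC/MS peak area remaining versus untreated peptide (C18, 45 °C, 10 mM ammonium formate pH 3, ESI positive/negative). Treatment: 500 μM peptide in water plus an equivalent of 1 M NaOH, 15 °C for 3 hours.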

human integrin αvβ5 = human integrin αvβ5 (Homo sapiens, UniProt P06756+P18084); assay: Evaluation of integrin binding property (surface plasmon resonance, Biacore 3000, immobilized cyclic peptide); conditions: surface plasmon resonance, immobilized cyclic peptide, human integrin αvβ5; read-out: Binding activity (integrin binding property, dissociation constant rank)
Sequence of human integrin αvβ5 (P06756 31-1048): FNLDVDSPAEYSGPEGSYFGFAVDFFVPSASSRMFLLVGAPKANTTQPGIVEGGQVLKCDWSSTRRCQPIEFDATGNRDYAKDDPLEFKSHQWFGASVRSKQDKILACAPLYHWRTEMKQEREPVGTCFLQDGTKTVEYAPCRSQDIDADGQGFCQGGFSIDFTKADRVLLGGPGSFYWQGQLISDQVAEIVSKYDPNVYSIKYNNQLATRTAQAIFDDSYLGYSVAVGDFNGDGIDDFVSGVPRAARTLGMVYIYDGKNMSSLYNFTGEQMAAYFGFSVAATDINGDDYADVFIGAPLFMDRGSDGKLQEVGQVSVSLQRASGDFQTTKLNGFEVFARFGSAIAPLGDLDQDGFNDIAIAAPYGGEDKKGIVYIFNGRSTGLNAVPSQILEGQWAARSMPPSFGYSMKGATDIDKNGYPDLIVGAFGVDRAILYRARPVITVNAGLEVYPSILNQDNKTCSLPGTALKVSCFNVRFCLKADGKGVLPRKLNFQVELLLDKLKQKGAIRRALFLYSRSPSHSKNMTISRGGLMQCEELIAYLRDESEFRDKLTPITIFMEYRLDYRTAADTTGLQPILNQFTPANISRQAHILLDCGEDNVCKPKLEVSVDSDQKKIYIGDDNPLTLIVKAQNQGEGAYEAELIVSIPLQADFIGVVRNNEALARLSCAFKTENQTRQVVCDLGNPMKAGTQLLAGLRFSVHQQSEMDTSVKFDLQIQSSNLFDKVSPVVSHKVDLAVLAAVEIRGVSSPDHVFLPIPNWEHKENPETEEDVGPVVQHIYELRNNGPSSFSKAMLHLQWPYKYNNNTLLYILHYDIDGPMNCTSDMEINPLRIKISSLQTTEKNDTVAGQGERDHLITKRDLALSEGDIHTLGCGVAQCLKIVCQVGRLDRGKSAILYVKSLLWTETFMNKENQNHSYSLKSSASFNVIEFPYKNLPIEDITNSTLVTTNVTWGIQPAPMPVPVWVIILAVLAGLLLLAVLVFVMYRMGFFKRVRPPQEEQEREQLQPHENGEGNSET
Sequence of human integrin αvβ5 (P18084 24-799): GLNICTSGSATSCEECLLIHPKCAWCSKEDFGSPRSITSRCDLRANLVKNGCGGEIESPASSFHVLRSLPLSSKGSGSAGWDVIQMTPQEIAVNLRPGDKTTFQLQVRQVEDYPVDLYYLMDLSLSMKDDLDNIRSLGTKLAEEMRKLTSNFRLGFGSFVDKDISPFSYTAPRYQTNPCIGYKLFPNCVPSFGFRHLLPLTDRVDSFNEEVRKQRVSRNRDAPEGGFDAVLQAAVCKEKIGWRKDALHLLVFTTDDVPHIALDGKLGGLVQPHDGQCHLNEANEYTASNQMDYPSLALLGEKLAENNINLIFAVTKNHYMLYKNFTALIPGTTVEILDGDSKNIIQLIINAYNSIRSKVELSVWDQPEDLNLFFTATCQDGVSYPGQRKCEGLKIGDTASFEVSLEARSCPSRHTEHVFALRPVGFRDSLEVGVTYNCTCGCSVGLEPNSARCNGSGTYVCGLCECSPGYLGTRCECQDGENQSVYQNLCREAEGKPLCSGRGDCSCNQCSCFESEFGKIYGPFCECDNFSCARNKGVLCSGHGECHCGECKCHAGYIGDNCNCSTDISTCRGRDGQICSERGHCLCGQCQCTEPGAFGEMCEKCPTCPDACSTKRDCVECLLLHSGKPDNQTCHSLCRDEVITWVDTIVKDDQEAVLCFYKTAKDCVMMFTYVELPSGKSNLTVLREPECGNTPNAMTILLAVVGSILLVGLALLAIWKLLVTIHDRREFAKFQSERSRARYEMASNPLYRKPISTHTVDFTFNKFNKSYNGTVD
In short: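 Human αvβ5 (30-1,000 nM) flowed for 10 min at 25 °C over immobilized cyclic peptide in 20 mM HEPES, 150 mM NaCl, 5 mM MgCl2, pH 7.4, followed by 30 min running buffer and 0.5 M EDTA regeneration. Dissociation constant from peptide minus unimmobilized channel, scored into standard grades.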

Compound	Stability (molecule stability, residual rate of the cyclic peptide rank) [1]	Kd (human integrin αvβ5)
C[C@@H]1NC(=O)[C@H](Cc2ccccc2)NC(=O)[C@H]([C@@H](C)O)NC(=O)[C@H](CC(=O)O)NC(=O)CNC(=O)[C@H](CCCNC(=N)N)NC(=O)[C@@H]2CCCN2C(=O)[C@H]([C@@H](C)O)NC(=O)[C@@H](NC(=O)[C@H](CCCCN)NC(=O)[C@H](CCCCN)NC(=O)[C@@H](N)CCCCN)CCSCC(=O)NCC[C@@H](C(=O)O)NC1=O [Cyclic peptide 147, KKK-(Hcy)-TPRGDTFA(Dab(acetyl))] (H-KKK[hCys]TPRGDTFA[Dab]-OH; linker 4-13 via X2)	A (The residual rate of the cyclic peptide is 70% or more.)	< 50 nM
C[C@@H]1NC(=O)[C@H](Cc2ccccc2)NC(=O)[C@H]([C@@H](C)O)NC(=O)[C@H](CC(=O)O)NC(=O)CNC(=O)[C@H](CCCNC(=N)N)NC(=O)[C@@H]2CCCN2C(=O)[C@H](Cc2ccc(O)cc2)NC(=O)[C@@H](NC(=O)[C@H](CCCCN)NC(=O)[C@H](CCCCN)NC(=O)[C@@H](N)CCCCN)CCSCC(=O)NCC[C@@H](C(=O)O)NC1=O [Cyclic peptide 148, KKK-(Hcy)-YPRGDTFA(Dab(acetyl))] (H-KKK[hCys]YPRGDTFA[Dab]-OH; linker 4-13 via X2)	A (The residual rate of the cyclic peptide is 70% or more.)	< 50 nM
CC(C)[C@@H]1NC(=O)[C@@H](NC(=O)[C@H](CCCCN)NC(=O)[C@H](CCCCN)NC(=O)[C@@H](N)CCCCN)CCSCC(=O)NCC[C@@H](C(=O)O)NC(=O)[C@H](C)NC(=O)[C@H](Cc2ccccc2)NC(=O)[C@H]([C@@H](C)O)NC(=O)[C@H](CC(=O)O)NC(=O)CNC(=O)[C@H](CCCNC(=N)N)NC(=O)[C@H](CO)NC1=O [Cyclic peptide 149, KKK-(Hcy)-VSRGDTFA(Dab(acetyl))] (H-KKK[hCys]VSRGDTFA[Dab]-OH; linker 4-13 via X2)	A (The residual rate of the cyclic peptide is 70% or more.)	< 50 nM
CC(C)[C@@H]1NC(=O)[C@@H](NC(=O)[C@H](CCCCN)NC(=O)[C@H](CCCCN)NC(=O)[C@@H](N)CCCCN)CCSCC(=O)NCC[C@@H](C(=O)O)NC(=O)[C@H](C)NC(=O)[C@H](Cc2ccccc2)NC(=O)[C@H]([C@@H](C)O)NC(=O)[C@H](CC(=O)O)NC(=O)CNC(=O)[C@H](CCCNC(=N)N)NC(=O)[C@H]([C@@H](C)O)NC1=O [Cyclic peptide 150, KKK-(Hcy)-VTRGDTFA(Dab(acetyl))] (H-KKK[hCys]VTRGDTFA[Dab]-OH; linker 4-13 via X2)	A (The residual rate of the cyclic peptide is 70% or more.)	< 50 nM
CC(C)[C@@H]1NC(=O)[C@H](CC(=O)O)NC(=O)CNC(=O)[C@H](CCCNC(=N)N)NC(=O)[C@@H]2CCCN2C(=O)[C@H](C(C)C)NC(=O)[C@@H](NC(=O)[C@H](CCCCN)NC(=O)[C@H](CCCCN)NC(=O)[C@@H](N)CCCCN)CCSCC(=O)NCC[C@@H](C(=O)O)NC(=O)[C@H](C)NC(=O)[C@H](Cc2ccccc2)NC1=O [Cyclic peptide 151, KKK-(Hcy)-VPRGDVFA(Dab(acetyl))] (H-KKK[hCys]VPRGDVFA[Dab]-OH; linker 4-13 via X2)	A (The residual rate of the cyclic peptide is 70% or more.)	< 50 nM
CC(C)[C@@H]1NC(=O)[C@@H](NC(=O)[C@H](CCCCN)NC(=O)[C@H](CCCCN)NC(=O)[C@@H](N)CCCCN)CCSCC(=O)NCC[C@@H](C(=O)O)NC(=O)CNC(=O)[C@H](Cc2ccccc2)NC(=O)[C@H]([C@@H](C)O)NC(=O)[C@H](CC(=O)O)NC(=O)CNC(=O)[C@H](CCCNC(=N)N)NC(=O)[C@@H]2CCCN2C1=O [Cyclic peptide 152, KKK-(Hcy)-VPRGDTFG(Dab(acetyl))] (H-KKK[hCys]VPRGDTFG[Dab]-OH; linker 4-13 via X2)	A (The residual rate of the cyclic peptide is 70% or more.)	< 50 nM
CC(C)[C@@H]1NC(=O)[C@@H](NC(=O)[C@H](CCCCN)NC(=O)[C@H](CCCCN)NC(=O)[C@@H](N)CCCCN)CCSCC(=O)NCC[C@@H](C(=O)O)NC(=O)[C@H](CO)NC(=O)[C@H](Cc2ccccc2)NC(=O)[C@H]([C@@H](C)O)NC(=O)[C@H](CC(=O)O)NC(=O)CNC(=O)[C@H](CCCNC(=N)N)NC(=O)[C@@H]2CCCN2C1=O [Cyclic peptide 153, KKK-(Hcy)-VPRGDTFS(Dab(acetyl))] (H-KKK[hCys]VPRGDTFS[Dab]-OH; linker 4-13 via X2)	A (The residual rate of the cyclic peptide is 70% or more.)	< 50 nM
CC(C)[C@@H]1NC(=O)[C@@H](NC(=O)[C@H](CCCCN)NC(=O)[C@H](CCCCN)NC(=O)[C@@H](N)CCCCN)CCSCC(=O)NCC[C@@H](C(=O)O)NC(=O)[C@H]([C@@H](C)O)NC(=O)[C@H](Cc2ccccc2)NC(=O)[C@H]([C@@H](C)O)NC(=O)[C@H](CC(=O)O)NC(=O)CNC(=O)[C@H](CCCNC(=N)N)NC(=O)[C@@H]2CCCN2C1=O [Cyclic peptide 154, KKK-(Hcy)-VPRGDTFT(Dab(acetyl))] (H-KKK[hCys]VPRGDTFT[Dab]-OH; linker 4-13 via X2)	A (The residual rate of the cyclic peptide is 70% or more.)	50 to 100 nM
C[C@@H]1NC(=O)[C@H](Cc2ccccc2)NC(=O)[C@H]([C@@H](C)O)NC(=O)[C@H](CC(=O)O)NC(=O)CNC(=O)[C@H](CCCNC(=N)N)NC(=O)[C@H]([C@@H](C)O)NC(=O)[C@H]([C@@H](C)O)NC(=O)[C@@H](NC(=O)[C@H](CCCCN)NC(=O)[C@H](CCCCN)NC(=O)[C@@H](N)CCCCN)CCSCC(=O)NCC[C@@H](C(=O)O)NC1=O [Cyclic peptide 155, KKK-(Hcy)-TTRGDTFA(Dab(acetyl))] (H-KKK[hCys]TTRGDTFA[Dab]-OH; linker 4-13 via X2)	A (The residual rate of the cyclic peptide is 70% or more.)	< 50 nM
C[C@@H]1NC(=O)[C@H](Cc2ccccc2)NC(=O)[C@H](CO)NC(=O)[C@H](CC(=O)O)NC(=O)CNC(=O)[C@H](CCCNC(=N)N)NC(=O)[C@@H]2CCCN2C(=O)[C@H]([C@@H](C)O)NC(=O)[C@@H](NC(=O)[C@H](CCCCN)NC(=O)[C@H](CCCCN)NC(=O)[C@@H](N)CCCCN)CCSCC(=O)NCC[C@@H](C(=O)O)NC1=O [Cyclic peptide 156, KKK-(Hcy)-TPRGDSFA(Dab(acetyl))] (H-KKK[hCys]TPRGDSFA[Dab]-OH; linker 4-13 via X2)	A (The residual rate of the cyclic peptide is 70% or more.)	50 to 100 nM
C[C@@H]1NC(=O)[C@H](Cc2ccccc2)NC(=O)[C@H](CO)NC(=O)[C@H](CC(=O)O)NC(=O)CNC(=O)[C@H](CCCNC(=N)N)NC(=O)[C@H]([C@@H](C)O)NC(=O)[C@H]([C@@H](C)O)NC(=O)[C@@H](NC(=O)[C@H](CCCCN)NC(=O)[C@H](CCCCN)NC(=O)[C@@H](N)CCCCN)CCSCC(=O)NCC[C@@H](C(=O)O)NC1=O [Cyclic peptide 157, KKK-(Hcy)-TTRGDSFA(Dab(acetyl))] (H-KKK[hCys]TTRGDSFA[Dab]-OH; linker 4-13 via X2)	A (The residual rate of the cyclic peptide is 70% or more.)	< 50 nM
C[C@H](NC(=O)[C@H](CCCCN)NC(=O)[C@H](CCCCN)NC(=O)[C@@H](N)CCCCN)C(=O)N[C@H]1CCSCC(=O)NCC[C@@H](C(=O)O)NC(=O)[C@H](C)NC(=O)[C@H](Cc2ccccc2)NC(=O)[C@H]([C@@H](C)O)NC(=O)[C@H](CC(=O)O)NC(=O)CNC(=O)[C@H](CCCNC(=N)N)NC(=O)[C@@H]2CCCN2C(=O)[C@H]([C@@H](C)O)NC1=O [Cyclic peptide 158, KKKA-(Hcy)-TPRGDTFA(Dab(acetyl))] (H-KKKA[hCys]TPRGDTFA[Dab]-OH; linker 5-14 via X2)	A (The residual rate of the cyclic peptide is 70% or more.)	< 50 nM
C[C@H](NC(=O)[C@@H]1CCNC(=O)CSCC[C@H](NC(=O)[C@H](CCCCN)NC(=O)[C@H](CCCCN)NC(=O)[C@@H](N)CCCCN)C(=O)N[C@@H]([C@@H](C)O)C(=O)N2CCC[C@H]2C(=O)N[C@@H](CCCNC(=N)N)C(=O)NCC(=O)N[C@@H](CC(=O)O)C(=O)N[C@@H]([C@@H](C)O)C(=O)N[C@@H](Cc2ccccc2)C(=O)N[C@@H](C)C(=O)N1)C(=O)O [Cyclic peptide 159, KKK-(Hcy)-TPRGDTFA(Dab(acetyl))A] (H-KKK[hCys]TPRGDTFA[Dab]A-OH; linker 4-13 via X2)	A (The residual rate of the cyclic peptide is 70% or more.)	< 50 nM
C[C@H](NC(=O)[C@@H]1CCNC(=O)CSCC[C@H](NC(=O)[C@H](C)NC(=O)[C@H](CCCCN)NC(=O)[C@H](CCCCN)NC(=O)[C@@H](N)CCCCN)C(=O)N[C@@H]([C@@H](C)O)C(=O)N2CCC[C@H]2C(=O)N[C@@H](CCCNC(=N)N)C(=O)NCC(=O)N[C@@H](CC(=O)O)C(=O)N[C@@H]([C@@H](C)O)C(=O)N[C@@H](Cc2ccccc2)C(=O)N[C@@H](C)C(=O)N1)C(=O)O [Cyclic peptide 160, KKKA-(Hcy)-TPRGDTFA(Dab(acetyl))A] (H-KKKA[hCys]TPRGDTFA[Dab]A-OH; linker 5-14 via X2)	A (The residual rate of the cyclic peptide is 70% or more.)	< 50 nM
